Data published in article PMC11073913 (Archiv der Pharmazie, 2024).
“And” between values parts separate entries of the source, which are not always exact repeats. Identical values can stand only once. Like-named read-outs stand apart in the source and are kept apart here.

Columns and labels:
[1] = system: LPS-induced ROS production in RAW 264.7 cells; test: cells; settings: Mus musculus, RAW264.7, 18 h, read-out: ROS (IC50)
human recombinant COX-2 = target: T1, human recombinant COX-2 (Homo sapiens, UniProt P35354); test: In vitro COX-2 inhibitory assay; format: biochemical; settings: for Enhancement of anti-COX-2 activity by p-Cl on benzylidine: compared with unsubstituted compounds 4b, 4c, 4g, 4h respectively
T1 sequence (P35354 18-604): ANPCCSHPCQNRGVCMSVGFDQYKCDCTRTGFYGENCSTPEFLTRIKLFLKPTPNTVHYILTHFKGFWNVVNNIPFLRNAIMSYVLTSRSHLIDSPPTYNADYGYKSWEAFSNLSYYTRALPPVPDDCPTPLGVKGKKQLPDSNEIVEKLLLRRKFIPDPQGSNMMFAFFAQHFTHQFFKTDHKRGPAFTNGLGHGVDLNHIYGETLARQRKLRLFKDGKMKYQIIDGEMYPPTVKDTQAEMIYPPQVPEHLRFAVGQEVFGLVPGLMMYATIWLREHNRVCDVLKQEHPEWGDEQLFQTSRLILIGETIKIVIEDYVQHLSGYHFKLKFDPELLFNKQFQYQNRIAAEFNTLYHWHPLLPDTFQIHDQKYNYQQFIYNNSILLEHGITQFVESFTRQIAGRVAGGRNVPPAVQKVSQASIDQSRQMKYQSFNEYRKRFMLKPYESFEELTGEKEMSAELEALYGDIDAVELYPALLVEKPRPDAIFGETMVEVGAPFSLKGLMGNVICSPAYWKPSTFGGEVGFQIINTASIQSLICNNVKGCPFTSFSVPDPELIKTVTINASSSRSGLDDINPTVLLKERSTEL

[2] = system: LPS-induced IL-6 production in RAW 264.7 cells; settings: for IL-6 level: cells treated with 25 μM compound, LPS-activated RAW 264.7
ovine COX-1 = target: T2, ovine COX-1 (Ovis aries, UniProt P05979); test: In vitro COX-1 inhibitory assay; format: biochemical
T2 sequence (P05979 25-600): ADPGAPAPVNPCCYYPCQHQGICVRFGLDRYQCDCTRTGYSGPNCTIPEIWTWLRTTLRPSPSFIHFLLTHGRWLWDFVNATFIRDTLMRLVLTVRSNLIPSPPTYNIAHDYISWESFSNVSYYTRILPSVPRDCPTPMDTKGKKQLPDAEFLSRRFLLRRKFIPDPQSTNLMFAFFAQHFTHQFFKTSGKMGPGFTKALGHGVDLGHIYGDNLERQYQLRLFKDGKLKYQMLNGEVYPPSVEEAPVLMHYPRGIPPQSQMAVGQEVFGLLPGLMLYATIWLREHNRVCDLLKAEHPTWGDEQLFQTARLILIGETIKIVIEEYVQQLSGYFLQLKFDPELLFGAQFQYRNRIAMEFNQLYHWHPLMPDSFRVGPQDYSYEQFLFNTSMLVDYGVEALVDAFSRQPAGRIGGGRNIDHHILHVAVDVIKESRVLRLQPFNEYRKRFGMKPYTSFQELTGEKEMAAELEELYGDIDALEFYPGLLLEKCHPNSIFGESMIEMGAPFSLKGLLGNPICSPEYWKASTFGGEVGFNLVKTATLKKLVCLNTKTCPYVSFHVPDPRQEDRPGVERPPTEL

[3] = system: LPS-induced TNF-α production in RAW 264.7 cells; settings: for TNF-α level: cells treated with 25 μM compound, LPS-activated RAW 264.7
soybean 15-LOX = target: T3, soybean 15-LOX (Glycine max, UniProt P08170); test: In vitro 15-LOX inhibitory assay; format: biochemical
T3 sequence (P08170 1-839): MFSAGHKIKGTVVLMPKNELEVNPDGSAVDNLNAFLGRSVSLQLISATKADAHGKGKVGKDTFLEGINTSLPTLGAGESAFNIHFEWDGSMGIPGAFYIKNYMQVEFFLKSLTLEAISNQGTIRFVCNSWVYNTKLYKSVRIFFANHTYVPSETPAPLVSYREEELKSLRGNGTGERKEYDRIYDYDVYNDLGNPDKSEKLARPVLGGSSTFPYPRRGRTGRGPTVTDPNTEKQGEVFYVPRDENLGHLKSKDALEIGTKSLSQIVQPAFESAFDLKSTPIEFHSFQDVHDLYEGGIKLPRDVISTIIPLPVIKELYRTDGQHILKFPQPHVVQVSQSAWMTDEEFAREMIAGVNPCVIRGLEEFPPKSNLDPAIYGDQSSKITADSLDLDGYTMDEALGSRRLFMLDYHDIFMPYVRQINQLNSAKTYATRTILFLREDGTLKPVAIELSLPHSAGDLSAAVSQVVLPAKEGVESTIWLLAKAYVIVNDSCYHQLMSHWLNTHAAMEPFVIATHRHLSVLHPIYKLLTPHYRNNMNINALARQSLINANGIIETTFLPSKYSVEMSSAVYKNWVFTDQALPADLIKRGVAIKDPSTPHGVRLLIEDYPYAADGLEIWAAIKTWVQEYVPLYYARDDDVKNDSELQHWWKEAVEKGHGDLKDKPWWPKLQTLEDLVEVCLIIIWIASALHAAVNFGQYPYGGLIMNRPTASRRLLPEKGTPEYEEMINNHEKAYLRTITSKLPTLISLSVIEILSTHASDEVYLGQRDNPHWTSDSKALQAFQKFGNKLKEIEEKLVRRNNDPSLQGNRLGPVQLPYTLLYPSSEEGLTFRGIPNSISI

[4] = system: LPS-induced ROS production in RAW 264.7 cells; settings: read-out: ROS (IC50), LPS (1 μg/mL) 18 h, mean ± SEM

| Compound | IC50 [1] [µM] | IC50 (human recombinant COX-2) [µM] | SI (Selectivity index = COX-1 IC50/COX-2 IC50) (human recombinant COX-2; COX-1 IC50/COX-2 IC50) | IL-6 level [2] | IC50 (ovine COX-1) [µM] | TNF-α level [3] | IC50 (soybean 15-LOX) [µM] | IC50 [4] [µM] | SI (Selectivity index = COX-1 IC50/COX-2 IC50) (human recombinant COX-2) | IC50 (human recombinant COX-2; read-out: COX2, IC50) [µM] | IC50 (ovine COX-1; read-out: COX1, IC50, ovine COX-1, mean ± SEM) [µM] | IC50 (soybean 15-LOX; read-out: 15-LOX IC50, soybean 15-LOX) [µM] | Enhancement of anti-COX-2 activity by p-Cl on benzylidine (human recombinant COX-2) [folds] | IL-6 inhibitory activity, folds more than unsubstituted benzylidine 4h ([2]; vs 4h) | TNF-α inhibitory activity, fold more than unsubstituted benzylidine 4h ([3]; vs 4h) [fold] | TNF-α inhibition, fold more potent than celecoxib ([3]; vs celecoxib) | IL-6 level ([2]; listed as celecoxib) [pg/mL] | TNF-α level ([3]; listed as celecoxib) [pg/mL] |
| --- | --- | --- | --- | --- | --- | --- | --- | --- | --- | --- | --- | --- | --- | --- | --- | --- | --- | --- |
| COc1ccc2c(c1)c(CC(=O)O)c(C)n2C(=O)c1ccc(Cl)cc1 [Indomethacin, indomethacin, reference compound] | 55 ± 1.26 | – | – | – | – | – | – | – | – | – | – | – | – | – | – | – | – | – |
| O=C(CSC1=N/C(=C\c2ccccc2)C(=O)N1c1ccccc1)NCc1ccccc1 [Compound 4i, (Z)-N-Benzyl-2-[(4-benzylidene-5-oxo-1-phenyl-4,5-dihydro-1H-imidazol-2-yl)thio]acetamide] | 21.8 ± 1.26 | 0.09 ± 0.041 | 121.60 | 21.00 pg/mL and 21.00 ± 9.39 pg/mL | 10.6 ± 1.62 | 46.98 ± 25.83 pg/mL | 2.82 ± 1.27 | – | – | – | – | – | – | – | – | – | – | – |
| O=C(CSC1=N/C(=C\c2ccccc2)C(=O)N1c1ccccc1)Nc1ccc(F)cc1 [Compound 4b, (Z)-2-[(4-Benzylidene-5-oxo-1-phenyl-4,5-dihydro-1H-imidazol-2-yl)thio]-N-(4-fluorophenyl) acetamide] | – | – | – | 50.90 ± 10.35 pg/mL | – | 51.63 ± 10.35 pg/mL | – | 23.8 ± 1.44 | 99.06 | 0.13 ± 0.068 | 12.6 ± 1.78 | 3.13 ± 1.49 | – | – | – | – | – | – |
| O=C(CSC1=N/C(=C\c2ccc(Cl)cc2)C(=O)N1c1ccccc1)NCc1ccccc1 [Compound 4r, (Z)-N-Benzyl-2-[(4-(4-chlorobenzylidene)-5-oxo-1-phenyl-4,5-dihydro-1H-imidazol-2-yl)thio]acetamide] | 72.4 ± 1.85 | 0.13 ± 0.057 | 78.00 | 20.29 ± 5.03 pg/mL | 10.1 ± 1.6 | 21.02 ± 5.03 pg/mL | 2.47 ± 1.14 | – | – | – | – | – | – | – | – | – | – | – |
| COc1ccc(NC(=O)CSC2=N/C(=C\c3ccc(Cl)cc3)C(=O)N2c2ccccc2)cc1 [Compound 4o, (Z)-2-{[4-(4-Chlorobenzylidene)-5-oxo-1-phenyl-4,5-dihydro-1H-imidazol-2-yl]thio}-N-(4-methoxyphenyl)acetamide] | 24.2 ± 1.26 | 0.1 ± 0.044 | 111.27 | 28.37 pg/mL and 28.37 ± 4.54 pg/mL | 11 ± 1.53 | 29.10 ± 4.54 pg/mL | 3.24 ± 1.46 | – | – | – | – | – | – | – | – | – | – | – |
| COc1cc(NC(=O)CSC2=N/C(=C\c3ccc(Cl)cc3)C(=O)N2c2ccccc2)cc(OC)c1OC [Compound 4p, (Z)-2-{[4-(4-Chlorobenzylidene)-5-oxo-1-phenyl-4,5-dihydro-1H-imidazol-2-yl]thio}-N-(3,4,5-trimethoxyphenyl)acetamide] | 25.4 ± 1.26 | 0.08 ± 0.037 | 152.23 and 152.33 | 30.70 pg/mL and 30.70 ± 3.70 pg/mL | 12.8 ± 1.83 | 31.42 ± 3.70 pg/mL | 2.69 ± 1.29 | – | – | – | – | – | 1.75 | – | – | – | – | – |
| O=C(CSC1=N/C(=C\c2ccccc2)C(=O)N1c1ccccc1)Nc1cccc(C(F)(F)F)c1 [Compound 4h, (Z)-2-[(4-Benzylidene-5-oxo-1-phenyl-4,5-dihydro-1H-imidazol-2-yl)thio]-N-[3-(trifluoromethyl)phenyl]acetamide] | 45.4 ± 1.23 | 0.28 ± 0.155 | 39.99 | 23.42 pg/mL and 23.42 ± 1.05 pg/mL | 11.1 ± 1.63 | 24.15 ± 1.05 pg/mL | 5.71 ± 2.56 | – | – | – | – | – | – | – | – | – | – | – |
| O=C(CSC1=N/C(=C\c2ccc(Cl)cc2)C(=O)N1c1ccccc1)Nc1ccc(Br)cc1 [Compound 4m, (Z)-N-(4-Bromophenyl)-2-[(4-(4-chlorobenzylidene)-5-oxo-1-phenyl-4,5-dihydro-1H-imidazol-2-yl)thio]acetamide] | 38.4 ± 1.37 | 0.18 ± 0.082 | 44.12 | 27.16 ± 0.9 pg/mL | 8 ± 1.31 | 27.89 pg/mL and 27.89 ± 0.90 pg/mL | 4.21 ± 1.53 | – | – | – | – | – | – | – | – | – | – | – |
| O=C(CSC1=N/C(=C\c2ccccc2)C(=O)N1c1ccccc1)Nc1ccccc1 [Compound 4a, (Z)-2-[(4-Benzylidene-5-oxo-1-phenyl-4,5-dihydro-1H-imidazol-2-yl)thio]-N-phenylacetamide] | 44.6 ± 1.43 | 0.12 ± 0.06 | 62.97 | 37.82 ± 1.06 pg/mL | 7.83 ± 1.19 | 57.28 ± 18.75 pg/mL | 5.71 ± 2.56 | – | – | – | – | – | – | – | – | – | – | – |
| O=C(CSC1=N/C(=C\c2ccc(Cl)cc2)C(=O)N1c1ccccc1)Nc1cccc(C(F)(F)F)c1 [Compound 4q, (Z)-2-{[4-(4-Chlorobenzylidene)-5-oxo-1-phenyl-4,5-dihydro-1H-imidazol-2-yl]thio}-N-[3-(trifluoromethyl)phenyl]acetamide] | 56.2 ± 1.26 | 0.09 ± 0.04 | 111.90 | 4.54 ± 0.61 pg/mL | 10.1 ± 1.61 | 5.26 pg/mL and 5.26 ± 0.61 pg/mL | 3.99 ± 1.9 | – | – | – | – | – | 3.1 | ~ 5 folds | 4.6 | ~ 5 fold | – | – |
| Cc1ccc(-c2cc(C(F)(F)F)nn2-c2ccc(S(N)(=O)=O)cc2)cc1 [Celecoxib, celecoxib, reference compound] | 44.6 ± 1.18 | – | – | 24.64 ± 6.36 pg/mL | – | 25.36 ± 6.364 pg/mL | – | – | – | – | – | – | – | – | – | – | 24.64 | 25.36 |
| Cc1ccc(NC(=O)CSC2=N/C(=C\c3ccc(Cl)cc3)C(=O)N2c2ccccc2)cc1 [Compound 4n, (Z)-2-{[4-(4-Chlorobenzylidene)-5-oxo-1-phenyl-4,5-dihydro-1H-imidazol-2-yl]thio}-N-(4-tolyl)acetamide] | 41 ± 1.39 | 0.12 ± 0.053 | 79.96 | 36.56 ± 14.95 pg/mL | 9.45 ± 1.33 | 37.28 ± 14.95 pg/mL | 3.13 ± 1.49 | – | – | – | – | – | – | – | – | – | – | – |
| O=C(CSC1=N/C(=C\c2ccc(Cl)cc2)C(=O)N1c1ccccc1)Nc1ccccc1 [Compound 4j, (Z)-2-{[4-(4-Chlorobenzylidene)-5-oxo-1-phenyl-4,5-dihydro-1H-imidazol-2-yl]thio}-N-phenylacetamide] | 33.4 ± 1.27 | 0.13 ± 0.064 | 94.97 | 49.59 pg/mL and 49.59 ± 10.22 pg/mL | 12 ± 1.67 | 50.31 ± 10.22 pg/mL | 4.75 ± 2.31 | – | – | – | – | – | – | – | – | – | – | – |
